PubChem BioAssay (NCI)
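Test compounds were applied to cells in 96-well plates for 48 hours at 5 doses. TGI is the concentration that stops growth completely.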

What was measured:
Test in all cases: DTP human tumour cell line panel, 48 h
[1] = system: SK-MEL-2 melanoma
[2] = system: MALME-3M melanoma
[3] = system: OVCAR-3 ovarian
[4] = system: U251 CNS
[5] = system: M14 melanoma
[6] = system: EKVX NSCLC
[7] = system: SK-MEL-5 melanoma
[8] = system: A498 renal
[9] = system: DU-145 prostate
[10] = system: OVCAR-4 ovarian
[11] = system: OVCAR-5 ovarian
[12] = system: RPMI-8226 leukemia
[13] = system: KM12 colon
[14] = system: LOX IMVI melanoma
[15] = system: CAKI-1 renal
[16] = system: TK-10 renal
[17] = system: SW-620 colon
[18] = system: RXF 393 renal
[19] = system: NCI-H460 lung
[20] = system: MDA-MB-435
[21] = system: OVCAR-8 ovarian
[22] = system: MOLT-4 leukemia
[23] = system: SNB-19 CNS
[24] = system: MDA-MB-231 breast
[25] = system: SR leukemia
[26] = system: SNB-75 CNS
[27] = system: MCF7 breast
[28] = system: HS 578T breast
[29] = system: SF-295 CNS
[30] = system: CCRF-CEM leukemia
[31] = system: SN12C renal
[32] = system: SF-268 CNS
[33] = system: NCI-H522 lung
[34] = system: UO-31 renal
[35] = system: IGROV1 ovarian
[36] = system: SF-539 CNS
[37] = system: PC-3 prostate
[38] = system: 786-0 renal
[39] = system: HCC-2998 colon
[40] = system: NCI/ADR-RES ovarian
[41] = system: T-47D breast
[42] = system: COLO 205 colon
[43] = system: A549 NSCLC
[44] = system: K-562 leukemia
[45] = system: UACC-62 melanoma
[46] = system: NCI-H226 lung
[47] = system: HOP-92 NSCLC
[48] = system: NCI-H23 lung
[49] = system: HT29 colon
[50] = system: MDA-N
[51] = system: SK-OV-3 ovarian
[52] = system: ACHN renal
[53] = system: HL-60(TB) leukemia
[54] = system: HCT-15 colon
[55] = system: SK-MEL-28 melanoma
[56] = system: HOP-62 NSCLC
[57] = system: HCT-116 colon

## c1csc(-c2nnc(C34CC5CC(CC(C5)C3)C4)o2)c1
[1]
  TGI: 55.4 µM
[2]
  TGI: 39.4 µM
[3]
  TGI: 38.5 µM
[4]
  TGI: > 100 µM
[5]
  TGI: > 100 µM
[6]
  TGI: > 100 µM
[7]
  TGI: 30.8 µM
[8]
  TGI: 43.9 µM
[9]
  TGI: > 100 µM
[10]
  TGI: > 100 µM
[11]
  TGI: > 100 µM
[12]
  TGI: 77.5 µM
[13]
  TGI: > 100 µM
[14]
  TGI: 47.1 µM
[15]
  TGI: > 100 µM
[16]
  TGI: > 100 µM
[17]
  TGI: > 100 µM
[18]
  TGI: 54.7 µM
[19]
  TGI: > 100 µM
[20]
  TGI: > 100 µM
[21]
  TGI: 98.4 µM
[22]
  TGI: 60 µM
[23]
  TGI: > 100 µM
[24]
  TGI: 45.7 µM
[25]
  TGI: 66.6 µM
[26]
  TGI: 75.8 µM
[27]
  TGI: > 100 µM
[28]
  TGI: 74.6 µM
[29]
  TGI: > 100 µM
[30]
  TGI: 47.4 µM
[31]
  TGI: > 100 µM
[32]
  TGI: > 100 µM
[33]
  TGI: > 100 µM
[34]
  TGI: 15.6 µM
[35]
  TGI: > 100 µM
[36]
  TGI: 40.1 µM
[37]
  TGI: > 100 µM
[38]
  TGI: 60.2 µM
[39]
  TGI: > 100 µM
[40]
  TGI: 57 µM
[41]
  TGI: > 100 µM
[42]
  TGI: 31.2 µM
[43]
  TGI: > 100 µM
[44]
  TGI: > 100 µM
[45]
  TGI: > 100 µM
[46]
  TGI: > 100 µM
[47]
  TGI: 54.8 µM
[48]
  TGI: > 100 µM
[49]
  TGI: 36.3 µM
[50]
  TGI: > 100 µM
[51]
  TGI: > 100 µM
[52]
  TGI: > 100 µM
[53]
  TGI: 33.5 µM
[54]
  TGI: > 100 µM
[55]
  TGI: > 100 µM
[56]
  TGI: > 100 µM
[57]
  TGI: > 100 µM
